Experimental data published in article PMC7802075 (ACS Infectious Diseases, 2020).
Like-named read-outs stand apart in the source and are kept apart here. Where a SMILES comes first, the peptide text is derived from it.

Biological target: T1, LmjIPCS (inositol phosphorylceramide synthase from L. major) (Leishmania major, UniProt E9AFX2)
T1 sequence (E9AFX2 1-338): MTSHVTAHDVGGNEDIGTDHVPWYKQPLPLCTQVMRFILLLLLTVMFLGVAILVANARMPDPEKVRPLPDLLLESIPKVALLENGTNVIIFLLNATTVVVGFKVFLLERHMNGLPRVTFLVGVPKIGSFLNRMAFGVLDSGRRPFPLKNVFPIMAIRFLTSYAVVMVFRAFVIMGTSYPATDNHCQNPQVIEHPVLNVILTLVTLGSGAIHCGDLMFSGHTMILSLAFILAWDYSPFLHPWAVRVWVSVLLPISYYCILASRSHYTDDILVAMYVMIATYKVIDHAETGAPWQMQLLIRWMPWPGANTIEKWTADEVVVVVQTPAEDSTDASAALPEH
Assay: biochemical
Assay type: biochemical
Design: inhibition: dose or concentration left out as unconfirmed
Conditions: for inhibition at 20000 µM: read-out: 20mM inhibition LmjIPCS; for inhibition: read-out: inhibition LmjIPCS

[1] = screening of NINDS set, sheet Screen 1
[2] = NINDS set screen, single concentration printed as 20mM

## CCOC(=O)N1CCC(=C2c3ccc(Cl)cc3CCc3cccnc32)CC1 [LORATADINE]
  inhibition at 20000 µM: 21%

## CC(=O)NC1CCSC1=O (stereo not drawn) [CITIOLONE]
NINDS set screen
  inhibition: -8%

## CCCCNc1cc(C(=O)O)cc(S(N)(=O)=O)c1Oc1ccccc1 [BUMETANIDE]
  inhibition: 9%

## CC(C)Cn1c(=O)n(C)c(=O)c2[nH]cnc21 [3-ISOBUTYL-1-METHYLXANTHINE]
  20mM inhibition LmjIPCS: 11%

## C=C(C)[C@@H]1CC=C(C(=O)O)CC1 [PERILLIC ACID (-)]
  inhibition at 20000 µM: 12%

## COc1ccc(CCC(=O)c2c(O)cc(O[C@@H]3O[C@H](CO)[C@@H](O)[C@H](O)[C@H]3O[C@@H]3O[C@@H](C)[C@H](O)[C@@H](O)[C@H]3O)cc2O)cc1O [NEOHESPERIDIN DIHYDROCHALCONE]
NINDS set screen, compound at 20mM (so in the source)
  20mM inhibition LmjIPCS: 15%

## OC(CCN1CCCCC1)(c1ccccc1)c1ccccc1 [PRIDINOL]
NINDS set screen
  inhibition: 27%

## CC[N+](C)(C)c1cccc(O)c1 [EDROPHONIUM]
  inhibition at 20000 µM: 12%

## CCC[C@@H]1C[C@@H](C(=O)N[C@@H]([C@H]2O[C@H](SC)[C@H](O)[C@@H](O)[C@H]2O)[C@@H](C)O)N(C)C1 [LINCOMYCIN]
  inhibition at 20000 µM: 8.53%

## COc1cc(OC)c2ccc(=O)oc2c1 [CITROPTEN]
[1]
  inhibition: 2.18%

## CC(C)NCC(O)c1ccc(O)c(O)c1 (stereo not drawn) [ISOPROTERENOL]
  inhibition: 11%

## CN1[C@@H]2CC[C@H]1C[C@@H](OC(=O)C(CO)c1ccccc1)C2 (stereo partly drawn) [ATROPINE]
  inhibition at 20000 µM: 26%

## Cc1cccc(N(C)C(=S)Oc2ccc3ccccc3c2)c1 [TOLNAFTATE]
  20mM inhibition LmjIPCS: 62%

## C[C@@H]1O[C@@H](O[C@H]2[C@H](Oc3cc(O)c4c(c3)O[C@H](c3ccc(O)cc3)CC4=O)O[C@H](CO)[C@@H](O)[C@@H]2O)[C@H](O)[C@H](O)[C@H]1O [NARINGIN]
  inhibition at 20000 µM: 4.67%

## O=[N+]([O-])c1cc(O)c(O)c([N+](=O)[O-])c1 [3,5-DINITROCATECHOL]
  20mM inhibition LmjIPCS: 8%

## CS(=O)(=O)c1ccc([C@@H](O)[C@@H](CO)NC(=O)C(Cl)Cl)cc1 [THIAMPHENICOL]
  inhibition at 20000 µM: 0.377%

## O=C(O)P(=O)(O)O [FOSCARNET]
  inhibition: 2%

## CO[C@H]1C[C@H](O[C@H]2[C@H](C)[C@@H](O[C@@H]3O[C@H](C)C[C@H](N(C)C)[C@H]3O)[C@@H](C)C[C@@]3(CO3)C(=O)[C@H](C)[C@@H](O)[C@@H](C)[C@@H](C)OC(=O)[C@@H]2C)O[C@@H](C)[C@@H]1O [OLEANDOMYCIN]
  inhibition at 20000 µM: 1.17%

## CC1=C(C(=O)O)N2C(=O)[C@@H](NC(=O)[C@H](N)c3ccccc3)[C@H]2SC1 [CEPHALEXIN]
  inhibition at 20000 µM: 5.26%

## CC(C)C(=O)Nc1ccc([N+](=O)[O-])c(C(F)(F)F)c1 [FLUTAMIDE]
  inhibition at 20000 µM: -1.8%

## Cc1cc(-c2ccccc2)nnc1NCCN1CCOCC1 [MINAPRINE]
NINDS set screen
  inhibition: 25%

## Cc1c(NC(=O)c2cccnc2)c(=O)n(-c2ccccc2)n1C [NIFENAZONE]
  inhibition: 11%

## NCC[C@H](O)C(=O)N[C@@H]1C[C@H](N)[C@@H](O[C@H]2O[C@H](CN)[C@@H](O)[C@H](O)[C@H]2O)[C@H](O)[C@H]1O[C@H]1O[C@H](CO)[C@@H](O)[C@H](N)[C@H]1O [AMIKACIN]
NINDS set screen
  inhibition: 21%

## Cc1ccc(/C(=C\CN2CCCC2)c2ccccn2)cc1 [TRIPROLIDINE]
  20mM inhibition LmjIPCS: 42%

## CC(C)NCC(O)c1cc(O)cc(O)c1 (stereo not drawn) [METAPROTERENOL]
  inhibition at 20000 µM: 7%

## CC[C@H](C)C(=O)O[C@H]1C[C@@H](C)C=C2C=C[C@H](C)[C@H](CC[C@@H]3C[C@@H](O)CC(=O)O3)[C@H]21 [LOVASTATIN]
  20mM inhibition LmjIPCS: 41%

## COc1ccc(-c2oc3c(CC=C(C)C)c(O[C@@H]4O[C@H](CO)[C@@H](O)[C@H](O)[C@H]4O)cc(O)c3c(=O)c2O[C@@H]2O[C@@H](C)[C@H](O)[C@@H](O)[C@H]2O)cc1 [ICARIIN]
  inhibition at 20000 µM: 10%

## NS(=O)(=O)c1cc2c(cc1Cl)NC(C(Cl)Cl)NS2(=O)=O (stereo not drawn) [TRICHLORMETHIAZIDE]
  inhibition: 20%

## CCN(CC)CCOC(=O)C(c1ccccc1)c1ccccc1 [ADIPHENINE]
[2]
  20mM inhibition LmjIPCS: 51%

## CON [METHOXYAMINE]
  20mM inhibition LmjIPCS: 12%

## CCCCOc1ccc(C(=O)CCN2CCCCC2)cc1 [DYCLONINE]
  20mM inhibition LmjIPCS: 61%

## C[C@]12CCC(=O)C=C1C=C[C@@H]1[C@@H]2CC[C@@]2(C)[C@H]1CC[C@@]21CCC(=O)O1 [CANRENONE]
  inhibition at 20000 µM: 12%

## NCCc1cc(O)c(O)cc1O [OXIDOPAMINE]
  20mM inhibition LmjIPCS: 65%

## O=C1C(Cl)=C(Cl)C(=O)C(Cl)=C1Cl [CHLORANIL]
  inhibition at 20000 µM: 19%

## O=[N+]([O-])NC1=NCCN1Cc1ccc(Cl)nc1 [IMIDACLOPRID]
  inhibition at 20000 µM: 8%

## OC(CCN1CCCC1)(c1ccccc1)C1CCCCC1 (stereo not drawn) [PROCYCLIDINE]
  inhibition at 20000 µM: 22%

## COC(=O)[C@H](Cc1ccccc1)NC(=O)[C@@H](N)CC(=O)O (H-Asp-Phe-OMe)
[1]
  inhibition: 10%

## COc1ccc(CN(CCN(C)C)c2ccccn2)cc1 [PYRILAMINE]
  inhibition: 5.27%

## CC(C(=O)O)c1ccc(N2Cc3ccccc3C2=O)cc1 (stereo not drawn) [INDOPROFEN]
  inhibition at 20000 µM: -1.7%

## CCCCC1=NC2(CCCC2)C(=O)N1Cc1ccc(-c2ccccc2-c2nnn[nH]2)cc1 [IRBESARTAN]
  inhibition: 1%

## O=C1C(CC[S+]([O-])c2ccccc2)C(=O)N(c2ccccc2)N1c1ccccc1 (stereo not drawn) [SULFINPYRAZONE]
  inhibition: -6%

## CCOC(N)=O
  inhibition at 20000 µM: 11%

## CCN(CC)CCCC(C)Nc1ccnc2cc(Cl)ccc12 (stereo not drawn) [CHLOROQUINE]
  20mM inhibition LmjIPCS: 38%

## CAPREOMYCIN
[2]
  20mM inhibition LmjIPCS: 52%

## CC(=O)Oc1ccc2c(c1)CC[C@@H]1[C@@H]2CC[C@]2(C)[C@@H](O)CC[C@@H]12 [ESTRADIOL ACETATE]
[2]
  20mM inhibition LmjIPCS: 68%

## NC(=O)NC1NC(=O)NC1=O (stereo not drawn) [ALLANTOIN]
  inhibition at 20000 µM: 18%

## O=C1[C@H](CC[C@H](O)c2ccc(F)cc2)[C@@H](c2ccc(O)cc2)N1c1ccc(F)cc1 [EZETIMIBE]
NINDS set screen
  inhibition: 23%

## NS(=O)(=O)c1cc(C(=O)O)c(NCc2ccco2)cc1Cl [FUROSEMIDE]
  inhibition at 20000 µM: 5%

## CC(C)COCC(CN(Cc1ccccc1)c1ccccc1)N1CCCC1 (stereo not drawn) [BEPRIDIL]
  20mM inhibition LmjIPCS: 61%

## CCN1CCN(C(=O)N[C@@H](C(=O)N[C@@H]2C(=O)N3[C@@H]2SC(C)(C)[C@@H]3C(=O)O)c2ccccc2)C(=O)C1=O [PIPERACILLIN]
  20mM inhibition LmjIPCS: 60%

## Cc1cc(=O)[nH]c(=S)[nH]1 [METHYLTHIOURACIL]
[1]
  inhibition: 7%

## CC[C@@]1(O)C[C@H](O[C@H]2C[C@H](N(C)C)[C@H](O)[C@H](C)O2)c2c(cc3c(c2O)C(=O)c2c(O)cccc2C3=O)[C@H]1C(=O)OC [AKLAVINE]
  20mM inhibition LmjIPCS: 59%

## CC12CCC(CC1)C(C)(C)O2 [CINEOLE]
NINDS set screen
  inhibition: -13%

## COc1ccccc1OCC(O)CO (stereo not drawn) [GUAIFENESIN]
  inhibition at 20000 µM: -0.357%

## Cn1cc[nH]c1=S [METHIMAZOLE]
NINDS set screen
  inhibition: 13%

## Nc1ncn([C@@H]2O[C@H](CO)[C@@H](O)[C@H]2O)c(=O)n1 [AZACITIDINE]
  inhibition: 12%

## Nc1nc(N)c2nc(-c3ccccc3)c(N)nc2n1
[2]
  20mM inhibition LmjIPCS: 36%

## CN[C@@H]1[C@@H](O)[C@@H](O[C@@H]2[C@@H](O)[C@H](O[C@H]3OC(CN)=CC[C@H]3N)[C@@H](N)C[C@H]2N)OC[C@]1(C)O [SISOMICIN]
  inhibition at 20000 µM: 19%

## COc1cc(NC(C)CCCN)c2ncccc2c1 (stereo not drawn) [PRIMAQUINE]
  20mM inhibition LmjIPCS: 69%

## CCOC(=O)C1=C(C)NC(C)=C(C(=O)OC)C1c1cccc([N+](=O)[O-])c1 (stereo not drawn) [NITRENDIPINE]
  20mM inhibition LmjIPCS: 39%

## COc1ccc(Cl)cc1C(=O)NCCc1ccc(S(=O)(=O)NC(=O)NC2CCCCC2)cc1 [GLYBURIDE]
  inhibition: 13%

## [H]/N=C(/N)NS(=O)(=O)c1ccc(N)cc1 [SULFAGUANIDINE]
  inhibition at 20000 µM: -1.62%

## C=C(C)[C@H]1CN[C@H](C(=O)O)[C@H]1CC(=O)O [KAINIC ACID]
  inhibition at 20000 µM: 14%

## CC1CC(OC(=O)C(O)c2ccccc2)CC(C)(C)N1C (stereo not drawn) [EUCATROPINE]
[1]
  inhibition: 8%

## Nc1nc2c(ncn2COCCO)c(=O)[nH]1 [ACYCLOVIR]
  inhibition at 20000 µM: 5%

## O=C(O)CCc1nc(-c2ccccc2)c(-c2ccccc2)o1 [OXAPROZIN]
  inhibition: 5.6%

## Cc1cc(C(C)(C)C)c(O)c(C(C)(C)C)c1 [2,6-DI-t-BUTYL-4-METHYLPHENOL]
[2]
  20mM inhibition LmjIPCS: 36%

## CC(=O)N[C@@H]1[C@@H](O)[C@H](O)[C@@H](CO)O[C@H]1O [ACETYLGLUCOSAMINE]
  20mM inhibition LmjIPCS: -19%

## O=c1cc[nH]c(=S)[nH]1 [2-THIOURACIL]
  inhibition at 20000 µM: 7%

## CCCCCC(C)N (stereo not drawn) [TUAMINOHEPTANE]
  inhibition at 20000 µM: 26%

## C=CCSCC1Nc2cc(Cl)c(S(N)(=O)=O)cc2S(=O)(=O)N1 (stereo not drawn) [ALTHIAZIDE]
NINDS set screen
  inhibition: 11%

## NS(=O)(=O)c1cc2c(cc1Cl)N=CNS2(=O)=O [CHLOROTHIAZIDE]
  20mM inhibition LmjIPCS: 51%

## O=C(/C=C/C=C/c1ccc2c(c1)OCO2)N1CCCCC1 [PIPERINE]
  inhibition at 20000 µM: 13%

## O=C1OC(=O)[C@H]2[C@@H]1[C@@H]1CC[C@H]2O1 [NORCANTHARIDIN]
  20mM inhibition LmjIPCS: 1.76%

## C=C(C)[C@H]1Cc2c(ccc3c2O[C@@H]2COc4cc(OC)c(OC)cc4[C@@H]2C3=O)O1 [ROTENONE]
  20mM inhibition LmjIPCS: 43%

## CCC[C@H](N[C@@H](C)C(=O)N1[C@H](C(=O)O)C[C@@H]2CCCC[C@@H]21)C(=O)OCC [PERINDOPRIL]
  inhibition at 20000 µM: 2%

## CC(C)(C)CC(C)(C)c1ccc(O)c(Cc2ccc(Cl)cc2Cl)c1 [CLOFOCTOL]
[2]
  20mM inhibition LmjIPCS: 65%

## CCOc1ccc2ccccc2c1C(=O)N[C@@H]1C(=O)N2[C@@H]1SC(C)(C)[C@@H]2C(=O)O [NAFCILLIN]
  inhibition at 20000 µM: 4.73%
